Reference: publication PMC6177136, “Hybrid topoisomerase I and HDAC inhibitors as dual action anticancer agents” (PLoS ONE, 2018)
Like-named read-outs stand apart in the source and are kept apart here.

Key:
Format in all cases: cell-based, Human
Capan 1 = experiment: Cytotoxicity assay (SRB, 72 h) Capan 1
NCI-H460 = experiment: Cytotoxicity assay (SRB, 72 h) NCI-H460; details: for IC50: 72 h, SRB assay, read-out: IC50 ± SD NCI-H460
MM481 = experiment: Cytotoxicity assay, primary mesothelioma MM481; details: epithelioid, 72 h, SBR assay; read-out: IC50 ± SD MM481
MM317 = experiment: Cytotoxicity assay, primary mesothelioma MM317; details: epithelioid, 72 h, SBR assay; read-out: IC50 ± SD MM317
MM404 = experiment: Cytotoxicity assay, primary mesothelioma MM404; details: epithelioid, 72 h, SBR assay; read-out: IC50 ± SD MM404
MM491 = experiment: Cytotoxicity assay, primary mesothelioma MM491; details: biphasic, 72 h, SBR assay; read-out: IC50 ± SD MM491
MM432 = experiment: Cytotoxicity assay, primary mesothelioma MM432
MM473 = experiment: Cytotoxicity assay, primary mesothelioma MM473; details: epithelioid, 72 h, SBR assay; read-out: IC50 ± SD MM473
MM487 = experiment: Cytotoxicity assay, primary mesothelioma MM487
MM288 = experiment: Cytotoxicity assay, primary mesothelioma MM288
p53 = experiment: Western blot, p53 in NCI-H460 cells; details: 24 h; SAHA 5 μM, SN38 0.05 μM, 3d 0.125–0.2–0.5 μM
Method: (§1) The supernatant, containing the total proteins extracts, were transferred in new vials. The protein concentration was measured by Bradford Protein Assay. Equal amounts of proteins for each sample were then resolved by SDS-PAGE and loaded on 10–12% polyacrilamide gels. The proteins were then transferred on nitrocellulose membranes. Molecular weights were estimated based upon the relative migration with molecular weight protein markers.
(§2) The non-specific binding was blocked by incubation of membranes in TBS-tween (25 mM Tris, 150 mM NaCl, 0.1% Tween 20) with 5% nonfat dry milk (BIORAD, Milan) for 60 minutes. Subsequently, the membrane was incubated overnight with primary antibodies: anti-Histone H4 (Millipore, 1:500), anti-acetyl-H4 (Santa Cruz, 1:1000) anti-p21 (Santa Cruz, 1:1000), anti-acetyl-tubulin (abcam, 1:1000), anti-α-tubulin (Sigma, 1:5000), anti β-actin (Sigma, 1:5000) and anti-Topoisomerase 1 (Santa Cruz, 1:500). After three washes with TBST blots were incubated with HRP-coniugated secondary anti-mouse and anti-rabbit (Santa Cruz, 1:5000) 1 hour at room temperature. After three washes with TBST the blots were developed with ECL substrate (GE Healthcare) and chemiluminescence detected by ChemiDoc Imaging System (Biorad). The optical density of the protein bands detected by western blotting was normalized on α -tubulin levels and analyzed by ChemiDoc software (Biorad).
(§3) Cells were lysed in 0.5% NP-40 and 40 μg of total proteins were loaded on NuPAGE 4–12% (Invitrogen), transferred to a nitrocellulose paper and probed with specific antibodies.

CycD1 = experiment: Western blot, CycD1 in NCI-H460 cells; details: 24 h; SAHA 5 μM, SN38 0.05 μM, 3d 0.125–0.2–0.5 μM
Method: as §1, §2, §3

H2A.X = experiment: Western blot, H2A.X induction in NCI-H460 cells; details: 24 h; SAHA 5 μM, SN38 0.05 μM, 3d 0.125–0.2–0.5 μM
Method: as §1, §2, §3

p16 = experiment: Western blot, p16 in NCI-H460 cells; details: 24 h; SAHA 5 μM, SN38 0.05 μM, 3d 0.125–0.2–0.5 μM
Method: as §1, §2, §3

DU145 = experiment: Cytotoxicity assay (SRB, 72 h) DU145; details: read-out: IC50 ± SD DU145
HT29 = experiment: Cytotoxicity assay (SRB, 72 h) HT29; details: read-out: IC50 ± SD HT29
MAVER-2 = experiment: Cytotoxicity assay (MTT, 72 h) MAVER-2; details: read-out: IC50 ± SD MAVER-2
DG-75 = experiment: Cytotoxicity assay (MTT, 72 h) DG-75
KM-H2 = experiment: Cytotoxicity assay (MTT, 72 h) KM-H2; details: 72 h, MTT assay; read-out: IC50 ± SD KM-H2
HeLa = experiment: Cytotoxicity assay (SRB, 72 h) HeLa; details: read-out: IC50 ± SD HeLa
A431 = experiment: Cytotoxicity assay (SRB, 72 h) A431; details: read-out: IC50 ± SD A431
U-2932 = experiment: Cytotoxicity assay (MTT, 72 h) U-2932; details: read-out: IC50 ± SD U-2932
HepG2 = experiment: Cytotoxicity assay (SRB, 72 h) HepG2; details: read-out: IC50 ± SD HepG2
A2780-Dx = experiment: Cytotoxicity assay (SRB, 72 h) A2780-Dx
NB4 = experiment: Cytotoxicity assay (MTT, 72 h) NB4; details: read-out: IC50 ± SD NB4
JECO-1 = experiment: Cytotoxicity assay (MTT, 72 h) JECO-1; details: 72 h, MTT assay; read-out: IC50 ± SD JECO-1
OCI-LY3 = experiment: Cytotoxicity assay (MTT, 72 h) OCI-LY3; details: 72 h, MTT assay; read-out: IC50 ± SD OCI-LY3
Method: (§4) Human tumor cells were seeded in 96-well cell culture plastic plates, allowed to attach, and exposed to scalar concentrations of the test compounds.

MINO = experiment: Cytotoxicity assay (MTT, 72 h) MINO; details: 72 h, MTT assay; read-out: IC50 ± SD MINO
L-428 = experiment: Cytotoxicity assay (MTT, 72 h) L-428; details: 72 h, MTT assay; read-out: IC50 ± SD L-428
Method: as §4

A2780 = experiment: Cytotoxicity assay (SRB, 72 h) A2780; details: read-out: IC50 ± SD A2780
[1] = meaning not defined in the paper

CC[C@@]1(O)C(=O)OCc2c1cc1n(c2=O)Cc2c-1nc1ccccc1c2C=NOCC(=O)NO [Compound 3a, Camptothecin-7-yl(methyleneaminooxy)-acetic acid hydroxyamide]
IC50 (Capan 1; Homo sapiens, CAPAN-1, read-out: IC50 ± SD Capan 1): 50 ± 6 nM
IC50 (NCI-H460; Homo sapiens, NCI-H460): 360 ± 100 nM

O=c1[nH]cc(F)c(=O)[nH]1 [Compound 5-FU]
IC50 (MM481): 27400 ± 2200 nM
IC50 (MM317): 17900 ± 3100 nM
IC50 (MM404): 52200 ± 8700 nM
IC50 (MM491): 44000 ± 10300 nM
percentage in parentheses after IC50 >200, MM432 (MM432; [1]): 34%
IC50 (MM432; sarcomatoid, 72 h, SBR assay, read-out: IC50 ± SD MM432): > 200000 nM
IC50 (MM473): 35200 ± 8400 nM
IC50 (MM487; biphasic, 72 h, SBR assay, read-out: IC50 ± SD MM487): > 200000 nM
percentage in parentheses after IC50 >200, MM487 (MM487; [1]): 48%
IC50 (MM288; epithelioid, 72 h, SBR assay, read-out: IC50 ± SD MM288): > 200000 nM
percentage in parentheses after IC50 >200, MM288 (MM288; [1]): 35%

CCc1c2c(nc3ccc(O)cc13)-c1cc3c(c(=O)n1C2)COC(=O)[C@]3(O)CC [SN38]
p53 activation (p53): less effective in p53 up-regulation
CycD1 regulation (CycD1): didn’t show any effect
H2A.X induction (DNA damage) (H2A.X): completely ineffective in H2A.X induction
P16 regulation (p16): didn’t show any effect
IC80 (NCI-H460; NCI-H460 cells): ~50 nM

CCc1c2c(nc3ccc(OCCCCCCC(=O)NO)cc13)-c1cc3c(c(=O)n1C2)COC(=O)[C@]3(O)CC [CY700]
IC50 (DU145): 870 ± 40 nM
IC50 (HT29): 1200 ± 200 nM
IC50 (MAVER-2): 400 ± 80 nM
IC50 (DG-75; 72 h, MTT assay, read-out: IC50 ± SD DG-75): > 10000 nM
percentage in parentheses after IC50 >10, DG-75 (DG-75; meaning not defined in the paper, given beside >10 μM): 18%
IC50 (KM-H2): 1500 ± 500 nM
IC50 (HeLa): 3300 ± 900 nM
IC50 (A431): 790 ± 100 nM
IC50 (U-2932): 900 ± 300 nM
IC50 (HepG2): 1500 ± 400 nM
IC50 (A2780-Dx; 72 h, SRB assay, multidrug-resistant ovarian carcinoma, read-out: IC50 ± SD A2780-Dx): 5900 ± 1000 nM
RI (Resistance Index) (A2780-Dx; A2780-Dx versus A2780): 2.4
IC50 (NB4): 240 ± 60 nM
IC50 (JECO-1): 1000 ± 400 nM
IC50 (OCI-LY3): 340 ± 40 nM
IC50 (MINO): 370 ± 100 nM
IC50 (L-428): 1700 ± 200 nM
IC50 (Capan 1; read-out: IC50 ± SD Capan 1): 960 ± 80 nM
IC50 (NCI-H460): 360 ± 20 nM
IC50 (A2780): 2500 ± 300 nM
